Calls of active or inactive are those of the source.
Tests used:
[1] = Jurkat T cell cytotoxicity, dose response, cytotoxicity control for P. falciparum gametocyte viability project, luminescence (AID 1117277); assay type: functional, cell-based;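 also: potency reflects loss of cellular ATP meaning fewer viable cells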
[2] = P. falciparum late gametocyte killing, dose response, luminescence (AID 1117278); assay type: functional, cell-based;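 also: gametocytes exposed to compound for 24 hours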
[3] = target: Protein Tat (Human immunodeficiency virus type 1 group M subtype B (isolate HXB2)(HIV-1), UniProt P04608); assay type: functional;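 also: tat binding to TAR RNA read out by fluorescence polarization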
Chain of Protein Tat (P04608 whole entry): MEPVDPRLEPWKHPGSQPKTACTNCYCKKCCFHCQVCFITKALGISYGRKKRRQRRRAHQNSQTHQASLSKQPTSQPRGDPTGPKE

[4] = test system: Vero; experiment: cytotoxicity of synthesized analogs in Vero cells, SAR follow-up, cytotoxicity control for West Nile virus antiviral project, cell-based, set II (AID 2402); assay type: functional; conditions: Chlorocebus sabaeus
[5] = Vero cell cytotoxicity, dose response, cytotoxicity control for Vif-APOBEC3G degradation inhibitor project, Vero cells (AID 1117358); assay type: functional; conditions: Human immunodeficiency virus 1, Vero
[6] = HEp-2 cell cytotoxicity, dose response, cytotoxicity control for RSV inhibitor project, HTS (AID 2410); assay type: functional; conditions: human respiratory syncytial virus
[7] = target: T1, Mannose-6-phosphate isomerase (Homo sapiens, UniProt P34949); experiment: inhibitors of human PMI, primary screen, biochemical, fluorescence intensity, coupled assay (AID 1209)
T1 sequence (P34949 whole entry): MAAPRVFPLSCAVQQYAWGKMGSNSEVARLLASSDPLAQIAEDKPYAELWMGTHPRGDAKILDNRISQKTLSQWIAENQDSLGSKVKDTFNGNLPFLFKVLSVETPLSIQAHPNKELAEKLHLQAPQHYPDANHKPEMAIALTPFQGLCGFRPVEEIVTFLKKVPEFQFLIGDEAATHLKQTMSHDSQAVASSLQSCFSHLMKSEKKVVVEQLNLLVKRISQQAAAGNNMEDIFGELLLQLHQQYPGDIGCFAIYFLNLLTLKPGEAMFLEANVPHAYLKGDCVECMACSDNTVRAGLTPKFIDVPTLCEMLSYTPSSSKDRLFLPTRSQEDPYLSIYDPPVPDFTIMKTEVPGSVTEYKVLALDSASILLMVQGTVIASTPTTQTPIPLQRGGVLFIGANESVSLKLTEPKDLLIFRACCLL

[8] = test system: Vero; experiment: Vero cell cytotoxicity, cytotoxicity control for flavivirus capping enzyme inhibitors (AID 588742); assay type: functional; conditions: Chlorocebus sabaeus
[9] = HeLa cell cytotoxicity, dose response, cytotoxicity control for MgcRacGAP inhibitor project (AID 624300); assay type: functional
[10] = cytotoxicity toward NIH3T3 fibroblasts, dose response, counter-screen, cell-based, ATP luminescence, mouse fibroblasts (AID 2010); assay type: functional;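 also: cells exposed to compound for about 90 hours before reading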
[11] = target: T1, Mannose-6-phosphate isomerase; experiment: human PMI inhibitors, high substrate, primary screen, biochemical, fluorescence intensity, high mannose 6-phosphate (AID 1220)
[12] = inhibitors of intracellular T. cruzi replication, confirmation, NIH3T3 host cells, beta-gal luminescence (AID 2044); assay type: functional, cell-based;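 also: intracellular parasites grown in NIH/3T3 mouse fibroblasts as host cells; luminescent beta-galactosidase reporter signal from transgenic T. cruzi replicating inside host cells; inhibitors lower the luminescence signal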
[13] = target: Induced myeloid leukemia cell differentiation protein Mcl-1 (Homo sapiens, UniProt Q07820); experiment: Mcl-1/Noxa binding inhibitor potency, dose response, biochemical, TR-FRET (AID 1417); assay type: functional
Chain of Induced myeloid leukemia cell differentiation protein Mcl-1 (Q07820 whole entry): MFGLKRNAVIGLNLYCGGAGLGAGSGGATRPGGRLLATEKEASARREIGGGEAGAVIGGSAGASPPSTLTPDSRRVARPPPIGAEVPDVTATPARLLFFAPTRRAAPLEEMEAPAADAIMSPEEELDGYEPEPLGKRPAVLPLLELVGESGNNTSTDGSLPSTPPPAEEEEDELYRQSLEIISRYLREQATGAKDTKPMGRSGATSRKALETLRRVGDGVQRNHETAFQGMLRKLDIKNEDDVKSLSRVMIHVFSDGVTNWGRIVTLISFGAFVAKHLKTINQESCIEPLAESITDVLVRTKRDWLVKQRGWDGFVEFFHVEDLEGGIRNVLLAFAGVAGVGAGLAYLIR

[14] = target: Genome polyprotein (dengue virus type 2, UniProt P29990); experiment: Dengue-2 NS5 methyltransferase inhibitors, primary screen, biochemical, confirmation dose response (AID 588689); assay type: functional
Chain of Genome polyprotein (P29990 2492-3391 limits assumed): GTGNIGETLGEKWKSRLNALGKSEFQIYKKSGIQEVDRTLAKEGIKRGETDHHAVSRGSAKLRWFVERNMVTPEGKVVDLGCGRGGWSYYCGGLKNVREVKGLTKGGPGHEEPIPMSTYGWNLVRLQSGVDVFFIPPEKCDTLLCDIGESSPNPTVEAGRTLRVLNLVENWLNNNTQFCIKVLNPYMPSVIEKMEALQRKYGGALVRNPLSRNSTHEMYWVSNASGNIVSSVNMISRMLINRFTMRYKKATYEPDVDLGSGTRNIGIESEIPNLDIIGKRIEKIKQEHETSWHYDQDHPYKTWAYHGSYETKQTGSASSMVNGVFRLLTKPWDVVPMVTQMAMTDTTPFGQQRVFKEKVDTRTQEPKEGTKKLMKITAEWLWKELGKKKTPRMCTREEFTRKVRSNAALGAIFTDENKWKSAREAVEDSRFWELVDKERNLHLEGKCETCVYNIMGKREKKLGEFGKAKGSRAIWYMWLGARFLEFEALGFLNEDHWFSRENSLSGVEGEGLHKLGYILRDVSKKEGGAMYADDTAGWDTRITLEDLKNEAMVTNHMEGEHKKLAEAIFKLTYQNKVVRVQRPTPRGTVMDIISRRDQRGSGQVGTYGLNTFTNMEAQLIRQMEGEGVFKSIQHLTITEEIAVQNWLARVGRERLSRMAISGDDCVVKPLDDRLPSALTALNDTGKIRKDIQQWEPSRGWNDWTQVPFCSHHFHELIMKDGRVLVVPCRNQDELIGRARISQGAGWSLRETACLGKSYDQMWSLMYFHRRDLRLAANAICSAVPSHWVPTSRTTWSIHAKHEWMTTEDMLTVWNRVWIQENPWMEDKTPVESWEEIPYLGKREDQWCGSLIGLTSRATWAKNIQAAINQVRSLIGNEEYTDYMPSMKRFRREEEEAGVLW

[15] = target: Sphingosine 1-phosphate receptor 2 (Homo sapiens, UniProt O95136); experiment: Dose Response Cell Based Assay for Agonists of the S1P2 Receptor. [Related pubchem assays: 729, 736, 843 ]; assay type: functional
Chain of Sphingosine 1-phosphate receptor 2 (O95136 whole entry): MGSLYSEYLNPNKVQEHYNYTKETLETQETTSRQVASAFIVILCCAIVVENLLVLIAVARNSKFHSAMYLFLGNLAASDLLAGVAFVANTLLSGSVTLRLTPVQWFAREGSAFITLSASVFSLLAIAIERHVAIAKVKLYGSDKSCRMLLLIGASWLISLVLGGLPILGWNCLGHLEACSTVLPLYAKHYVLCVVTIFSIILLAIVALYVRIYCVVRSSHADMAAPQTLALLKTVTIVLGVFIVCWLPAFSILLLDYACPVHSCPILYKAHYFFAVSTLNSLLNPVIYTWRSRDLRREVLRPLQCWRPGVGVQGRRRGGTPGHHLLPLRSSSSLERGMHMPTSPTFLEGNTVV

## COc1ccc(C2CC(c3cccs3)=NN2C(=O)CSc2nnc(N)s2)cc1OC (stereo not given)
[1]
  IC50: > 83.3 µM (inactive)
[2]
  IC50: > 109 µM (inactive)

## CCOc1ccc(-n2c(Cc3cc(O)nc(O)n3)nnc2SCC(=O)NC2CCCC2)cc1
[3]
  IC50: > 100 µM (active)

## O=C(CSc1nc2cccc(F)c2c(=O)n1-c1ccccc1)Nc1ccc2c(c1)CCC2
[4]
  CC50: > 200 µM (active)

## Cn1nc(C(F)(F)F)c(C#N)c1N1CCN(c2ccc(F)cc2)CC1
[5]
  CC50: > 40 µM (active)
[6]
  CC50: 8.85 µM (active)

## CCOc1c(Cl)cc(CNc2ccc(N3CCCC3)cc2)cc1OC
[7]
  IC50: 3.93 µM (active)
[8]
  CC50: 27.8 µM (active)
[9]
  CC50: 100 µM (active)
[10]
  EC50: > 60 µM (not active)
[11]
  IC50: 37.7 µM (active)
[12]
  EC50: 4.98 µM (active)
[13]
  IC50: 2.69 µM (active)
[14]
  IC50: 93.2 µM (active)

## COCCNC(=O)CN1CCN(C(c2ccccc2)c2ccccc2)CC1
[15]
  EC50: > 50 µM (not active)

— ChEMBL document CHEMBL1201862, “PubChem BioAssay data set” (2004)
